Source: patent US6710048B2, “Pyrazine derivatives as modulators of tyrosine kinases” (Ortho-McNeil Pharmaceutical, Inc., priority 2000, dated 2004)
Like-named read-outs stand apart in the source and are kept apart here.

What was measured:
[1] = target: T1, CDK1 (cyclin dependent kinase 1) / cyclin B (Homo sapiens, UniProt P06493); assay: CDK1 kinase assay; type: biochemical
T1 construct: purchased New England Biolabs 6020; host or cells: insect cells
Protocol: The term n.d. means not tested.
Assays to test compound inhibition of other kinases were preformed using methods that measure the amount of phosphorylation of a biotinylated peptide substrate. Biotinylated peptide substrates were selected from the literature as appropriate for the enzyme being evaluated. The general procedure used to assay for kinase activity is as follows: A kinase reaction mix was prepared in 50 mM Tris-HCl pH=8, 10 mM MgCl2, 0.1 mM NaVO4, 1 mM DTT, 5-10 μM ATP, 0.25-1 μM biotinylated peptide substrate, 0.2-0.8 μCuries per well ^33P-γ-ATP [2000-3000 Ci/mmol]. Assay conditions vary slightly for each protein kinase, for example, insulin receptor kinase requires 10 mM MnCl2 for activity and Calmodulin-dependent protein kinase requires calmodulin and 2 mM CaCl2. The reaction mixture was dispensed into the wells of a streptavidin coated Flashplate and 1 μl drug stock in 100% DMSO was added to a 100 μl reaction volume resulting in a final concentration of 1% DMSO in the reaction. Enzyme was diluted in 50 mM Tris-HCl pH=8.0, 0.1% BSA and added to each well. The reaction was incubated for one hour at 30° C. in the presence of compound. After one hour the reaction mix was aspirated from the plate and the plate was washed with PBS containing 100 mM EDTA. The plate was read on a scintillation counter to determine ^33P-γ-ATP incorporated into the immobilized peptide. […] A maximum and minimum signal for the assay was determined on each plate. The IC50 was calculated from the dose response curve of the percent inhibition of the maximum signal in the assay according to the formula [max signal−background/test compound signal−background (100)=% inhibition] by graphing the percent inhibition against the log concentration of test compound. Known inhibitor compounds appropriate for the kinase being assayed were also included on each plate.
VEGF-R (vascular endothelial growth factor receptor-2) is a fusion protein containing a polyhistidine tag at the N-terminus followed by amino acids 786-1343 of the rat VEGF-R2 kinase domain (GenBank Accession #U93306). CDK1 (cyclin dependent kinase 1) is isolated from insect cells expressing both the human CDK1 catalytic subunit and its positive regulatory subunit cyclin B (New England Biolabs, Beverly, Mass., Cat. #6020). CDK4 (cyclin dependent kinase 4) contains amino acids 769 to 921 of the mouse […] protein found in the GST-retinoblastoma protein construct (Santa Cruz Biotechnology, Santa Cruz, Calif.; Cat. #SC-4112). Insulin Receptor Kinase consists of residues 941-1313 of the cytoplasmic domain of the beta-subunit of the human insulin receptor (BIOMOL, Plymouth Meeting, Pa., Cat. #SE-195). Protein Kinase A is the catalytic subunit of cAMP dependent protein kinase-A purified from bovine heart (Upstate Biotech, Lake Placid, N.Y., Cat#14-114). PKC (protein kinase-C) is the gamma or beta isoform of the human protein produced in insect cells (BIOMOL, Plymouth Meeting, Pa., Cat. #SE-143). Casein Kinase 1 is a truncation at amino acid 318 of the C-terminal portion of the rat CK1 delta isoform produced in E.coli (New England Biolabs, Beverly, Mass., Cat. #6030). Casein Kinase 2 includes the alpha and beta subunits of the human CK2 protein produced in E.coli (New England Biolabs, Beverly, Mass., Cat. #6010). Calmodulin Kinase (calmodulin-dependent protein kinase 2) is a truncated version of the alpha subunit of the rat protein produced in insect cells (New England Biolabs, Beverly, Mass., Cat. #6060). Glycogen Synthase Kinase-3 is the beta isoform of the rabbit enzyme produced in E. coli (New England Biolabs, Beverly, Mass., Cat. #6040). MAP Kinase is the rat ERK-2 isoform containing a polyhistidine tag at the N-terminus produced in E. coli. and activated by phosphorylation with MEK1 prior to purification (BIOMOL, Plymouth Meeting, Pa., Cat. #SE-137). EGFR (epidermal growth factor receptor) is purified from human A431 cell membranes (Sigma, St. Louis, Mo., Cat.# E3641). […]

[2] = target: FGF-R2 (Homo sapiens, UniProt P21802); assay: FGF-R2 kinase selectivity assay; type: biochemical; settings: Table 4 kinase selectivity; read-out: IC50, Assay 15 FGF-R2
Chain of FGF-R2 (P21802 22-821, species assumed): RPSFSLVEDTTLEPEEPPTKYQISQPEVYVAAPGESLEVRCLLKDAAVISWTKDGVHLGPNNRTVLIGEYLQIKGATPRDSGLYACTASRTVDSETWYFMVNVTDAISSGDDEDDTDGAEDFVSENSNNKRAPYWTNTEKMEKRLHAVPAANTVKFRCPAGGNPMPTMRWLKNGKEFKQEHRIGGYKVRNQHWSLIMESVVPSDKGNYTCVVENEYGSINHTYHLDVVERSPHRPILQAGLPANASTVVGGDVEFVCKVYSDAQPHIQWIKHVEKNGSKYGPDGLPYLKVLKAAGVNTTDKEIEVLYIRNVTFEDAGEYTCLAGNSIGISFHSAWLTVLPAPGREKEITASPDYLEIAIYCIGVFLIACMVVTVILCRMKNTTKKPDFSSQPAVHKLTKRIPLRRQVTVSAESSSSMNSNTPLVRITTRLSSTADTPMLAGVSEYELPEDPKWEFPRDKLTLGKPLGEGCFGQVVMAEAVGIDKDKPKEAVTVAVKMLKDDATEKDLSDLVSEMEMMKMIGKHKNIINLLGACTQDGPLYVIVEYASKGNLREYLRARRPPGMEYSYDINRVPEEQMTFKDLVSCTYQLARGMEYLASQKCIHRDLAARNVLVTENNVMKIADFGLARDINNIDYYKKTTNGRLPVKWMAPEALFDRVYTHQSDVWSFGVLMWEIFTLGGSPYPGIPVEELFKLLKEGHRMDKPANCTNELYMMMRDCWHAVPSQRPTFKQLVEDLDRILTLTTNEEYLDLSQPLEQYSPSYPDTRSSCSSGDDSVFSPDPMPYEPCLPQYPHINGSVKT
Protocol: Assays to test compound inhibition of other kinases were preformed using methods that measure the amount of phosphorylation of a biotinylated peptide substrate. Biotinylated peptide substrates were selected from the literature as appropriate for the enzyme being evaluated. The general procedure used to assay for kinase activity is as follows: A kinase reaction mix was prepared in 50 mM Tris-HCl pH=8, 10 mM MgCl2, 0.1 mM NaVO4, 1 mM DTT, 5-10 μM ATP, 0.25-1 μM biotinylated peptide substrate, 0.2-0.8 μCuries per well ^33P-γ-ATP [2000-3000 Ci/mmol]. Assay conditions vary slightly for each protein kinase, for example, insulin receptor kinase requires 10 mM MnCl2 for activity and Calmodulin-dependent protein kinase requires calmodulin and 2 mM CaCl2. The reaction mixture was dispensed into the wells of a streptavidin coated Flashplate and 1 μl drug stock in 100% DMSO was added to a 100 μl reaction volume resulting in a final concentration of 1% DMSO in the reaction. Enzyme was diluted in 50 mM Tris-HCl pH=8.0, 0.1% BSA and added to each well. The reaction was incubated for one hour at 30° C. in the presence of compound. After one hour the reaction mix was aspirated from the plate and the plate was washed with PBS containing 100 mM EDTA. The plate was read on a scintillation counter to determine ^33P-γ-ATP incorporated into the immobilized peptide. Test compounds were assayed in duplicate at 8 concentrations [100 tM, 10 μM, 1 μM, 100 nM, 10 nM, 1 nM, 100 μM, 10 μM]. A maximum and minimum signal for the assay was determined on each plate. The IC50 was calculated from the dose response curve of the percent inhibition of the maximum signal in the assay according to the formula [max signal−background/test compound signal−background (100)=% inhibition] by graphing the percent inhibition against the log concentration of test compound. Known inhibitor compounds appropriate for the kinase being assayed were also included on each plate.

[3] = Table 4 kinase selectivity, 10 = approximate value, read-out: IC50, Assay 2 CDK1
[4] = Tables 1-3, >10 or >100 = no 50% inhibition at highest dose tested, read-out: CDK IC50

T1 sequence (P06493 whole entry): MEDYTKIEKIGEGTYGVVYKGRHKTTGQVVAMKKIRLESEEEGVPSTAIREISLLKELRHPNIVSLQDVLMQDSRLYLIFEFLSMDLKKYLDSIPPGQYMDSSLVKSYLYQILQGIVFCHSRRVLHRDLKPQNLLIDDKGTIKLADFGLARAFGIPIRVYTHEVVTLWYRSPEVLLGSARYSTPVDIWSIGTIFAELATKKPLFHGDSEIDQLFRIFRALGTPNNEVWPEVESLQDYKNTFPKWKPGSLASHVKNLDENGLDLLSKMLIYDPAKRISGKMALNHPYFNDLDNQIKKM
T1 sequence (P14635 whole entry partner): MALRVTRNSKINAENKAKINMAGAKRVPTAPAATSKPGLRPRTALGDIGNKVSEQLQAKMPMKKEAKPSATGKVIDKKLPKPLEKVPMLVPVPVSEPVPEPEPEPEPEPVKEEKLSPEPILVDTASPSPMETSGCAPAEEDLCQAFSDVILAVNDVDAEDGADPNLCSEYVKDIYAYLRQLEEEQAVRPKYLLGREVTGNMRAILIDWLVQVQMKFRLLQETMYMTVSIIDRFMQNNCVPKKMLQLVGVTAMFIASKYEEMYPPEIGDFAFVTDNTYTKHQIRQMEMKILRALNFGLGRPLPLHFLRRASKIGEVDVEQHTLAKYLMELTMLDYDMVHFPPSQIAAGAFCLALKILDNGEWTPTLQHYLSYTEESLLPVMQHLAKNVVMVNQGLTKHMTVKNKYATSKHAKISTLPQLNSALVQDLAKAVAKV

SMILES | IC50 [1, 3] [µM] | IC50 [1, 4] [µM] | IC50 [2] [µM]
O=C(NCCCO)c1cncc(-c2cncc(Nc3cccc(Cl)c3)n2)c1 [Cmd 39] | 34.8 | 34.8 | 1.8
Clc1cccc(Nc2cncc(-c3cncc(NCCCn4cncn4)c3)n2)c1 [Cmd 76] | > 100 | > 10 | 0.153
OCCCCNc1cncc(-c2cncc(Nc3cccc(Cl)c3)n2)c1 [Cmd 32] | > 100 | > 100 | 2.36
OCCCNc1cncc(-c2cncc(Nc3cccc(Cl)c3)n2)c1 [Cmd 4] | > 10 | 5.96 | 0.207
Clc1cccc(Nc2cncc(-c3cncc(NCCCn4cccn4)c3)n2)c1 [Cmd 75] | > 100 | > 10 | 0.326
Clc1cccc(Nc2cncc(-c3cncc(NCCCc4ccncc4)c3)n2)c1 [Cmd 71] | > 100 | > 10 | 0.317
Clc1cccc(Nc2cncc(-c3cncc(NCCCN4CCCCC4)c3)n2)c1 [Cmd 73] | 6.1 | 3.24 | 0.276
Clc1cccc(Nc2cncc(-c3cncc(NCCCc4cccnc4)c3)n2)c1 [Cmd 72] | > 100 | > 10 | 0.293
CN(C)CCNc1cncc(-c2cncc(Nc3cccc(Cl)c3)n2)c1 [Cmd 33, N′-[5-[6-[(3-chlorophenyl)amino]pyrazinyl]-3-pyridinyl]-N^2,N^2-dimethyl-1,2-ethanediamine] | > 10 | ~10 | 1.4
CN(C)CCCNc1cncc(-c2cncc(Nc3cccc(Cl)c3)n2)c1 [Cmd 35] | > 10 | ~10 | 3.07
